Where a SMILES comes first, the peptide text is derived from it. [ ]: non-standard residue; d: D form. ξ: configuration not given here. ξLac(3-iPr) = CC(C)CC(O)C(=O)O; NMeV = CN[C@H](C(=O)O)C(C)C; βAla = NCCC(=O)O
Tests used:
washed mouse platelets [1] = test: ADP-induced platelet aggregation (light transmission aggregometry); format: cell-based; conditions: ADP 5 μM; for ADP-induced maximum platelet aggregation, % of vehicle control: 30 min pretreatment
Method: (§1) Washed platelets were prepared as previously described by Zhongren Ding et al.. Whole blood was collected from the abdominal aorta using a syringe containing 3.8% sodium citrate (9:1, V/V) as an anticoagulant. Citrated blood (2 mL) was centrifuged at room temperature at 300× g for 2 min to obtain platelet-rich plasma (PRP). Platelets were obtained by the further centrifugation of PRP at 700× g for 2 min, and resuspended in Tyrode’s buffer (138 mM of NaCl, 2.7 mM of KCl, 1 mM of MgCl2, 3 mM of NaH2PO4, 5 mM of glucose, 10 mM of HEPES, pH 7.4) with 0.02 U/mL apyrase (A6410, Sigma-Aldrich, St. Louis, MO, USA) to a density of 3 × 10^8 of platelets/mL for use.
(§2) The platelet aggregation and release assay were performed as previously reported. Washed mouse platelets were treated with isaridin E (6.25, 12.5, 25, 50, 100, or 200 μM) or vehicle or clopidogrel (20 μM) at 37 °C for 30 min, followed by stimulation with ADP (01905, Sigma-Aldrich, St. Louis, MO, USA, 5 μM), collagen (C7661, Sigma-Aldrich, St. Louis, MO, USA, 1 μg/mL) or thrombin (T6884, Sigma-Aldrich, St. Louis, MO, USA, 0.02 U/mL). The platelet aggregation was assessed using a lumi-aggregometer (700-2, Chrono-Log, Havertown, PA, USA) with a stirring speed of 1200 rpm at 37 °C. The release of ATP was simultaneously monitored using Luciferin/luciferase reagent (395, Chrono-Log, Havertown, PA, USA). Aggregation traces and ATP release traces were monitored continuously for at least 10 min.

human neutrophils = test system: human neutrophils; design: method as in PMID 23822585; conditions: cited from earlier work
PI3K = test: ADP-induced phosphorylation of PI3K, Western blot; format: cell-based, human; conditions: 50 μM, Meg-01 cells
Method: (§3) Western blotting was performed as described in our previous study. Meg-01 cells were lysed with protein lysis buffer (P0013, Beyotime Biotechnology, Haimen, China) containing a protease inhibitor cocktail (539131, Millipore, Billerica, MA, USA) and phosphatase inhibitor cocktail (K1012, APExBIO, Houston, TX, USA). The samples (20 μg) were then separated by 8% SDS-PAGE gel and transferred onto PVDF membranes. The PDVF membranes were incubated with primary antibodies at 4 °C for 12 h. After incubating with the appropriate HRP-conjugated secondary antibodies (7076, 7074, Cell Signaling Technology, Danvers, MA, USA), blots were detected with chemiluminescent HRP substrate (P90719, Millipore, Billerica, MA, USA) using the ChemiDoc XRS+ system (BIO-RAD, Hercules, CA, USA). Primary antibodies against the following antigens were listed: PI3K (4257, Cell Signaling Technology, Danvers, MA, USA), Phospho-PI3K (ab226842, Abcam, Cambridge, UK), Akt (4691, Cell Signaling Technology, Danvers, MA, USA), Phospho-Akt (4056, Cell Signaling Technology, Danvers, MA, USA), and β-actin (66009-1, Proteintech, Rosemont, IL, USA).

Tail-bleeding assay = conditions: for tail bleeding time versus vehicle control: single intragastric dose 3 h before, n = 5 mice
Method: Mice were assigned randomly to […] and intragastrically administrated with a single dose of vehicle, isaridin E (12.5, 25, 50, or 100 mg/kg), or clopidogrel (10 mg/kg) at 3 h before the cutting-tail experiment. Tails were transected at a distal margin of 5 mm and were immediately immersed into 10 mL of saline at 37 °C. The bleeding time was recorded as when the observed bleeding ceased.

washed mouse platelets [2] = test: Collagen-induced platelet aggregation; format: cell-based; conditions: collagen 1 μg/mL, p > 0.05
Method: as §1
(§4) The platelet aggregation and release assay were performed as previously reported. […] The platelet aggregation was assessed using a lumi-aggregometer (700-2, Chrono-Log, Havertown, PA, USA) with a stirring speed of 1200 rpm at 37 °C. The release of ATP was simultaneously monitored using Luciferin/luciferase reagent (395, Chrono-Log, Havertown, PA, USA). Aggregation traces and ATP release traces were monitored continuously for at least 10 min.

washed mouse platelets [3] = test: LDH (lactate dehydrogenase) release cytotoxicity assay; format: cell-based; conditions: for LDH Release (%): 37 °C, 30 min, n = 6
Excerpt: We first examined whether isaridin E has cytotoxic effects on washed mouse circulating platelets using the LDH (lactate dehydrogenase) cytotoxicity assay kit. Destruction of the cell membrane caused by apoptosis or necrosis leads to the release of enzymes in the cytoplasm into the culture medium, including LDH, with stable enzyme activity. Therefore, the quantitative analysis of the percentage of LDH leakage from the platelets is commonly used to evaluate the cytotoxic effects of tested compounds, and LDH > 10% was considered cytotoxic. […] Next, we tested whether treatment with isaridin E for 3 h (a single intragastric administration at 100 mg/kg) affects hematological and coagulation parameters in vivo.
as §1
The possible cytotoxic effect of isaridin E on mouse platelets was assessed with the LDH Cytotoxicity Assay Kit (C0016, Beyotime Biotechnology, Haimen, China). Washed mouse platelets were pretreated with vehicle or different concentrations of isaridin E ([…], 12.5, 25, 50, 100, 200, or 400 μM) at 37 °C for 30 min, and then collected for detection following the manufacturer’s instructions. The cytotoxic effects were determined using the percentage of LDH leakage released from the platelets (% LDH release).

Akt = test: ADP-induced phosphorylation of Akt, Western blot; format: cell-based, human; conditions: 50 μM, Meg-01 cells
Method: as §3

[4] = FeCl3-induced carotid artery thrombosis mouse model; format: in vivo, C57BL/6J mice
Method: The mouse model of carotid artery thrombosis induced by FeCl3 injury was performed and monitored by a stereoscopic fluorescence microscope as previously described. […] Mice were then anesthetized with a single dose of sodium pentobarbital (60 mg/kg, i.p., Sigma-Aldrich, St. Louis, MO, USA). Rhodamine 6G (83697, Sigma-Aldrich, St. Louis, MO, USA; 0.5 mg/mL) was injected into the right jugular vein to label platelets. The carotid artery (CA) was carefully exposed, and a black "U"-shaped plastic (3 mm) was inserted under the CA gently to block background fluorescence. Filter papers (1 × 2 mm) with 7.5% saturated FeCl3 solution were applied topically for 1 min, and thrombus formation in the injured CA was recorded in real time using a stereoscopic fluorescence microscope (M205FA, Leica, Wetzlar, Germany) for 12 min.

washed mouse platelets [5] = test: ADP-induced platelet activation, CD62p surface expression by flow cytometry; format: cell-based; conditions: 30 min, then 50 μM ADP 5 min, vehicle 35.6 ± 1.7%
Method: as §1
Washed mouse platelets were pretreated with vehicle or different concentrations of isaridin E for 30 min at 37 °C, followed by stimulation with 50 μM ADP for 5 min. Platelets were then stained with FITC-conjugated anti-CD41 antibody (133904, Biolegend, San Diego, CA, USA) and PE-conjugated anti-CD62p antibody (148306, Biolegend, San Diego, CA, USA) for 20 min at 25 °C in the dark. Then, platelets were fixed in 1% paraformaldehyde solution and analyzed with a CytoFLEX flow cytometer (Beckman Coulter, Brea, CA, USA).

[6] = design: method as in PMID 21438588; conditions: cited from earlier work
[7] = Hematologic parameters after single intragastric dose; format: in vivo, mice; conditions: 3 h
Method: (§5) Mice were intragastrically administrated with a single dose of isaridin E (100 mg/kg) or vehicle at 3 h before anesthesia. Whole blood was drawn from the abdominal aorta and collected in K2EDTA anticoagulant tubes to evaluate the hematologic parameters with an automatic hematology analyzer (BC-2800 vet, Mindray, Shenzhen, China). The citrated blood was centrifuged at 1500× g (25 °C) for 15 min to obtain the platelet-poor plasma (PPP). PPP was then used to measure the coagulation parameters, including ATPP, PT, TT, and FIB, with an automated coagulation analyzer (RAC-030, Rayto, Shenzhen, China).

[8] = Coagulation parameters (APTT, PT, TT, FIB) after single intragastric dose; format: in vivo, mice; conditions: 3 h
Method: as §5

washed mouse platelets [9] = test: ADP-induced platelet ATP release (luciferin/luciferase); format: cell-based; conditions: ADP 5 μM
Method: as §1, §2

washed mouse platelets [10] = test: Thrombin-induced platelet aggregation; format: cell-based; conditions: thrombin 0.02 U/mL, p > 0.05
Method: as §1, §4

[11] = 100 mg/kg single gavage, n=5 mice
[12] = 100 mg/kg single intragastric administration
[13] = 100 mg/kg single oral gavage, n = 5 mice

CC(C)CC1OC(=O)CCNC(=O)[C@H](C(C)C)N(C)C(=O)[C@H](C(C)C)N(C)C(=O)[C@H](Cc2ccccc2)NC(=O)[C@@H]2CCCN2C1=O (stereo partly drawn) [Isaridin E, cyclo-[(OH) (S)-HMPA^1-L-Pro^2-L-Phe^3-N-Me-L-Val^4-N-Me-L-Val^5-β-Ala^6(CO)]] (cyclo(F[NMeV][NMeV][βAla][ξLac(3-iPr)]P))
ADP-induced maximum platelet aggregation, % of vehicle control (washed mouse platelets [1]; 12.5 μM): 75.6 ± 2.6% | ADP-induced maximum platelet aggregation, % of vehicle control (washed mouse platelets [1]; 25 μM): 55.7 ± 4.8% | ADP-induced maximum platelet aggregation, % of vehicle control (washed mouse platelets [1]; 50 μM): 26.6 ± 3.5% | reduction of ADP-induced platelet aggregation versus vehicle control (washed mouse platelets [1]; 50 μM, extent similar to clopidogrel (20 μM)): 73.4 ± 3.5% | ADP-induced maximum platelet aggregation, % of vehicle control (washed mouse platelets [1]; 100 μM): 15.6 ± 2.9% | ADP-induced maximum platelet aggregation, % of vehicle control (washed mouse platelets [1]; 200 μM): 8.1 ± 0.8% | IC50 (washed mouse platelets [1]; Mus musculus, Platelet, read-out: IC50 inhibiting ADP-induced platelet aggregation): 26.1 ± 2.9 µM | cytotoxicity in human neutrophils (human neutrophils): without cytotoxicity | elastase release induced by FMLP (human neutrophils; human neutrophils): inhibiting | superoxide anion generation induced by FMLP (human neutrophils; human neutrophils): inhibiting | ADP-induced phosphorylation of PI3K (PI3K; 30 min, ADP 5 μM 5 min): significantly suppressed | total protein expression of PI3K (PI3K): without altering | tail bleeding time versus vehicle control (Tail-bleeding assay; 12.5, 25, 50 or 100 mg/kg): no obvious effects | bleeding time compared with clopidogrel (10 mg/kg) (Tail-bleeding assay; isaridin E 12.5-100 mg/kg): significantly reduced | maximum platelet aggregation in response to collagen (washed mouse platelets [2]): no significant differences | cytotoxicity on washed platelets (washed mouse platelets [3]; 6.25-400 μM, LDH > 10% considered cytotoxic): no obvious cytotoxicity | LDH Release (%) (washed mouse platelets [3]; isaridin E 6.25 μM): 0.86 ± 0.03% | LDH Release (%) (washed mouse platelets [3]; isaridin E 12.5 μM): 0.89 ± 0.04% | LDH Release (%) (washed mouse platelets [3]; isaridin E 25 μM): 0.88 ± 0.03% | LDH Release (%) (washed mouse platelets [3]; isaridin E 50 μM): 0.86 ± 0.03% | LDH Release (%) (washed mouse platelets [3]; isaridin E 100 μM): 0.88 ± 0.04% | LDH Release (%) (washed mouse platelets [3]; isaridin E 200 μM): 0.84 ± 0.02% | LDH Release (%) (washed mouse platelets [3]; isaridin E 400 μM): 0.85 ± 0.02% | ADP-induced phosphorylation of Akt (Akt; 30 min, ADP 5 μM 5 min): significantly suppressed | total protein expression of Akt (Akt): without altering | maximum thrombus size ([4]; 12.5, 25, 50, or 100 mg/kg oral gavage at 1, 24, 48 h before FeCl3 injury, at 12 min, dose-dependent): reduced | time to the first thrombus formation ([4]; 12.5, 25, 50, or 100 mg/kg oral gavage at 1, 24, 48 h before FeCl3 injury, dose-dependent): significantly prolonged | antithrombotic effects relative to clopidogrel at 10 mg/kg ([4]; 50 or 100 mg/kg): comparable to that of clopidogrel | percentage of CD62p expression on the platelet surface (washed mouse platelets [5]; 25 μM): 29.6 ± 1.0% | percentage of CD62p expression on the platelet surface (washed mouse platelets [5]; 50 μM): 16.0 ± 1.4% | percentage of CD62p expression on the platelet surface (washed mouse platelets [5]; 100 μM): 8.4 ± 1.0% | insecticidal activity [6]: insecticidal activity | HCT (hematocrit) [7, 11]: 39.5 ± 1.4% | LY % (lymphocyte percentage) [7, 11]: 83.1 ± 2.5% | MCH (mean red blood cell hemoglobin) [7, 11]: 17.3 ± 0.4 pg | MCHC (mean red blood cell hemoglobin concentration) [7, 11]: 330 ± 8 g/L | MCV (mean red blood cell volume) [7, 11]: 51.1 ± 0.8 fL | MO % (monocyte percentage) [7, 11]: 2.7 ± 0.6% | MPV (mean platelet volume) [7, 11]: 5.3 ± 0.3 fL | NE % (neutrophil percentage) [7, 11]: 14.8 ± 2.2% | PLT (platelet count) [7, 11]: 1233 ± 65 10^9/L | RBC (red blood cell) [7, 11]: 7.8 ± 0.3 10^12/L | RDW (red cell distribution width) [7, 11]: 15.2 ± 0.5% | WBC (white blood cell) [7, 11]: 3.3 ± 0.5 10^9/L | hematological parameters versus NS- and vehicle-treated groups [7, 12]: no significant differences | effect on general coagulation (APTT, TT, PT, FIB) [8, 12]: no obvious effects | ATPP [8, 13]: 32.4 ± 1.0 s | FIB (fibrinogen) [8, 13]: 3.1 ± 0.1 g/L | PT (prothrombin time) [8, 13]: 12.1 ± 0.4 s | TT (thrombin time) [8, 13]: 14.0 ± 0.8 s | ADP-induced platelet ATP release, % of vehicle control (washed mouse platelets [9]; 6.25 μM): 60.7 ± 7.9% | ADP-induced platelet ATP release, % of vehicle control (washed mouse platelets [9]; 12.5 μM): 31.7 ± 4.8% | IC50 (washed mouse platelets [9]; Mus musculus, Platelet, read-out: IC50 inhibiting ADP-induced platelet ATP release): 7.9 ± 1.1 µM | maximum platelet aggregation in response to thrombin (washed mouse platelets [10]): no significant differences

COC(=O)[C@H](c1ccccc1Cl)N1CCc2sccc2C1 [clopidogrel, reference compound]
tail bleeding time versus vehicle control (Tail-bleeding assay; 10 mg/kg): significantly increased
